# Measured values from patent US20040248880A1, “1,2,3,4,5,6-Hexahydroazepino[4,5-B]indoles containing arylsulfones at the 9-position” (priority 2003, published 2004).
# Structures can show the parent of a compound that is named as a salt.
row,SMILES,melting point
1,Cl.O=S(=O)(c1cc(F)cc(F)c1)c1ccc2[nH]c3c(c2c1)CCNCC3,313 to 315 °C (dec.)
2,"O=S(=O)(c1cccc(F)c1)c1ccc2[nH]c3c(c2c1)CCNCC3 [Example 5, 9-[(3-Fluorophenyl)sulfonyl]-1,2,3,4,5,6-hexahydroazepino[4,5-b]indole]",153 to 156 °C
3,CCn1c2c(c3cc(S(=O)(=O)c4ccc(F)cc4)ccc31)CCNCC2.Cl,227 to 233 °C (dec.)
4,"O=S(=O)(c1ccc(F)cc1)c1ccc2[nH]c3c(c2c1)CCNCC3 [Example 2, 9-[(4-Fluorophenyl)sulfonyl]-1,2,3,4,5,6-hexahydroazepino[4,5-b]indole]",168 °C (dec.)
5,"CCn1c2c(c3cc(S(=O)(=O)c4ccccc4)ccc31)CCNCC2 [Example 8, 6-Ethyl-9-(phenylsulfonyl)-1,2,3,4,5,6-hexahydroazepino[4,5-b]indole]",224 °C (dec.)
6,Cl.O=S(=O)(c1ccc(F)c(F)c1)c1ccc2[nH]c3c(c2c1)CCNCC3,320 °C (dec.)
7,Cl.Cn1c2c(c3cc(S(=O)(=O)c4ccccc4)ccc31)CCNCC2,> 300 °C
8,Cl.O=S(=O)(c1ccccc1)c1ccc2[nH]c3c(c2c1)CCNCC3,290 to 291.5 °C
9,"CC(C)N1CCc2c(n(C)c3ccc(S(=O)(=O)c4ccc(F)cc4)cc23)CC1 [Example 20, 9-[(4-fluorophenyl)sulfonyl]-3-isopropyl-6-methyl-1,2,3,4,5,6-hexahydroazepino[4,5-b]indole]",282 to 283 °C (dec.)
10,"COc1ccc(S(=O)(=O)c2ccc3[nH]c4c(c3c2)CCNCC4)cc1 [Example 4, 9-[(4-Methoxyphenyl)sulfonyl]-1,2,3,4,5,6-hexahydroazepino[4,5-b]indole]",139 °C (dec.)
11,"Cc1ccc(S(=O)(=O)c2ccc3[nH]c4c(c3c2)CCNCC4)cc1 [Example 3, 9-[(4-Methylphenyl)sulfonyl]-1,2,3,4,5,6-hexahydroazepino[4,5-b]indole]",125 °C (dec.)
12,COc1cccc(S(=O)(=O)c2ccc3[nH]c4c(c3c2)CCNCC4)c1.Cl,232 to 235 °C (dec.)
13,"Cn1c2c(c3cc(S(=O)(=O)c4ccc(OCCO)cc4)ccc31)CCNCC2 (as salt: hydrochloride) [Example 17, 9-[(4-(2-Hydroxyethoxy)phenyl)sulfonyl]-6-methyl-1,2,3,4,5,6-hexahydroazepino[4,5-b]indole hydrochloride]",285 to 287 °C (dec.)
14,Cl.O=S(=O)(c1ccc(C(F)(F)F)cc1)c1ccc2[nH]c3c(c2c1)CCNCC3,278 to 279 °C (dec.)
15,CN1CCc2[nH]c3ccc(S(=O)(=O)c4ccccc4)cc3c2CC1,150 °C (dec.)
16,Cl.Cn1c2c(c3cc(S(=O)(=O)c4cc(F)cc(F)c4)ccc31)CCNCC2,337 to 340 °C (dec.)
17,"CN1CCc2c(n(C)c3ccc(S(=O)(=O)c4ccccc4)cc23)CC1 [Example 18, 3,6-Dimethyl-9-(phenylsulfonyl)-1,2,3,4,5,6-hexahydroazepino[4,5-b]indole]",283 to 286 °C
